Data: publication PMC9669183 (British journal of pharmacology, 2022)
Values joined by “and” are separate entries in the source; they are usually repeats but may differ in a detail not shown here. Equal values may be shown once.

How the values were obtained:
α1β3γ2L GABAAR = α1β3γ2L GABAAR (Homo sapiens, UniProt P14867+P18507+P28472); type: binding
α1β2γ2L GABAAR [1] = target: T1, α1β2γ2L GABAAR (Rattus norvegicus, UniProt P18508+P62813+P63138, INS375LLRMFSFK); experiment: Direct activation, two-electrode voltage clamp in Xenopus oocytes; type: cell-based; settings: 50 μM α7-PAM; n=5 oocytes/drug; mean±SEM
α1β2γ2L GABAAR [2] = target: T1, α1β2γ2L GABAAR; type: cell-based
α1β2γ2L GABAAR [3] = target: T1, α1β2γ2L GABAAR; experiment: Modulation of steady-state response to saturating GABA, Xenopus oocytes; type: cell-based; settings: 50 μM α7-PAM; 1 mM GABA
α1β2γ2L GABAAR [4] = target: T1, α1β2γ2L GABAAR; experiment: Drug combination; type: cell-based
α1β2γ2L GABAAR [5] = target: T1, α1β2γ2L GABAAR; experiment: Potentiation of receptors activated by allosteric agonists; type: cell-based
[6] = c 0.804, KR,PNU-120596 constrained to 10 μM
[7] = c 0.804, KR,PNU-120596 constrained to 50 μM
[8] = c 0.804, KR,PNU-120596 constrained to 100 μM

## COc1cc(OC)c(NC(=O)Nc2cc(C)on2)cc1Cl [PNU-120596, N-(5-Cl-2,4-dimethoxyphenyl)-N’-(5-methyl-3-isoxazolyl)-urea]
α1β3γ2L GABAAR; 3-10 μM α7-PAM
  shift in GABA F/Fo curves: Leftward shift
α1β3γ2L GABAAR; 3-100 μM α7-PAM, no GABA
  direct effect on fluorescence from α1β3γ2L-bound Gzn-OG (orthosteric site): do not modify fluorescence
α1β2γ2L GABAAR [1]
  direct activation: response as % of the peak response to 1 mM GABA+50 μM propofol: 0.38±0.09%
α1β2γ2L GABAAR [2]; 50 μM α7-PAM, 2-5 μM GABA (PA<0.10), 100% = no effect, mean±SEM
  potentiation of the response to low GABA (% of control): 133±11 % of control
α1β2γ2L GABAAR [2]; co-agonist concerted transition model
  free energy change (ΔG) towards stabilizing the active state: -0.26 ± 0.04 kcal/mol and -0.26 kcal/mol
α1β2γ2L GABAAR [2]; coapplied with low GABA (PA=0.05-0.13)
  potentiation EC50 (Hill equation): the fits did not converge
α1β2γ2L GABAAR [3]
  steady-state response to saturating GABA in presence of α7-PAM (% of control): 90±2 % of control
α1β2γ2L GABAAR [4]; 0.1-0.5 μM GABA+10 μM NS-1738+50 μM PNU-120596, 5 oocytes
  PA of response to low GABA+NS-1738 with PNU-120596 coapplied: 0.074±0.024
α1β2γ2L GABAAR [4]; [6]
  predicted PA for GABA+NS-1738+PNU-120596, distinct site model: 0.114
  predicted PA for GABA+NS-1738+PNU-120596, same site model: 0.047
α1β2γ2L GABAAR [4]; [7]
  predicted PA for GABA+NS-1738+PNU-120596, distinct site model: 0.103
  predicted PA for GABA+NS-1738+PNU-120596, same site model: 0.065
α1β2γ2L GABAAR [4]; [8]
  predicted PA for GABA+NS-1738+PNU-120596, distinct site model: 0.097
  predicted PA for GABA+NS-1738+PNU-120596, same site model: 0.073

## CCOC(=O)c1cncn1[C@H](C)c1ccccc1 [R(+)-etomidate, R-1-(1-ethylphenyl)imidazole-5-ethyl ester]
α1β2γ2L GABAAR [5]; 2-4 μM R(+)-etomidate
  PA of response to R(+)-etomidate alone: 0.053±0.015 and 0.041±0.013

## CC(C)c1cccc(C(C)C)c1O [propofol]
α1β2γ2L GABAAR [5]; 10 μM propofol
  PA of currents elicited by propofol alone: 0.06-0.07
